Measurements: patent publication US6992095B2, “Stilbene compounds comprising an adamantyl group, compositions and methods thereof” (Galderma Research & Development, S.N.C., priority 1996, dated 2006)
Read-outs that look alike come from different tables or passages of the source.

Test system: mouse embryonic teratocarcinoma F9 cells
Assay: mouse embryonic teratocarcinoma F9 cell differentiation test (antagonist activity)
Format: cell-based
Conditions: inhibition by 50% of agonist effect on secretion of plasminogen activator, CD 2043 at 10 nM, incubation for three days, read-out: Antagonist against CD 2043 (10 nM) F9 differentiation test IC50
Description: The compounds according to the invention show activity in the test of differentiation of mouse embryonic teratocarcinoma cells (F9) (Cancer Research, 43, 5268 (1983)) and/or in the test of inhibition of ornithine decarboxylase after induction with TPA in mice (Cancer Research, 38, 793–801 (1978)). These tests show the activities of these compounds in the fields of cell differentiation and cell proliferation, respectively. In the test of cell (F9) differentiation, […] to retinoic acid receptors. […] Some of these compounds are thus also active in a test which is used to identify molecules which are RAR antagonists, as described in French patent application No. 95/07302 filed on 19 Jun. 1995 by the same Assignee as the present invention, which is incorporated by reference in its entirety herein. […] Thus, the response to a topical application, to the ear of a mammal, of an RAR-agonist molecule, which corresponds to an increase in the thickness of this ear, may be inhibited by the systemic or topical administration of an RAR-antagonist molecule. In addition, some of these compounds may provide synergism to the biological activity of products binding to the nuclear receptors.
The antagonist activity of the compounds of formula (I) was evaluated in the mouse embryonic teratocarcinoma F9 cell differentiation test, (Cancer Research, 43, 5268 (1983)).
The F9 cells were inoculated in 12-well clusters, the compounds were tested at from 10^−9 to 10^−5 M in the presence of all-trans-retinoic acid or of a synthetic agonist retinoid, 4-(5,6,7,8-tetrahydro-5,5,8,8-tetramethyl-2-naphthylaminomethyl)benzoic acid (CD 2043), at 10^−8 M. After incubation for three days, the morphological observations were carried out and the concentration of the test compound which inhibits the agonist effect on the secretion of the plasminogen activator by 50% (IC50) was determined.

Row | SMILES | IC50 | IC50 (Mus musculus, F9, 72 h)
1 | COCCOCOc1ccc(/C(C)=C/c2ccc(C(=O)O)nc2)cc1C12CC3CC(CC(C3)C1)C2 [Example 7, 5-{2-[3-Adamant-1-yl-4-(2-methoxyethoxymethoxy)-phenyl]proxpen-(E)-yl}pyridine-2-carboxylic acid] | 600 nM | 
2 | COCCOCOc1ccc(/C=C/c2ccc(C(=O)O)cc2)cc1C12CC3CC(CC(C3)C1)C2 [Example 2, 4-[(E)-2-(3-(1-Adamantyl)-4-methoxyethoxymethoxy-phenyl)ethenyl]benzoic acid] |  | 310 nM
3 | COCCOCOc1ccc(/C(C)=C/c2ccc(C(=O)O)cn2)cc1C12CC3CC(CC(C3)C1)C2 [Example 10, 6-{2-[3-Adamant-1-yl-4-(2-methoxyethoxymethoxy)-phenyl]proven-(E)-yl}nicotinic acid] | 35 nM | 
4 | COCCOCOc1ccc(/C(C)=C\c2ccc(C(=O)O)cc2)cc1C12CC3CC(CC(C3)C1)C2 [Example 5, 4-[(Z)-2-(3-(1-Adamantyl)-4-methoxyethoxymethoxy-phenyl)-1-prorenyl]benzoic acid] | 630 nM | 
5 | COCCOCOc1ccc(/C(C)=C/c2ccc(C(=O)O)cc2)cc1C12CC3CC(CC(C3)C1)C2 [Example 4, 4-[(E)-2-(3-(1-Adamantyl)-4-methoxyethoxymethoxy-phenyl)-1-propenyl]benzoic acid] |  | 9 nM
